Test results published in paper PMC7509924, “Neuroprotective effect of Angelica gigas root in a mouse model of ischemic brain injury through MAPK signaling pathway regulation” (Chinese Medicine, 2020).

Key:
[1] = system: ERK and p38 in colon carcinoma cells; design: method as in PMID 21170925; details: cited from earlier work
[2] = Pharmacokinetics of decursin in plasma after oral administration of RAGE; assay type: in vivo, SD rats
Method: Quantification of decursin was performed using an Accela LC system (Thermo Fisher Scientific; MA, USA) equipped with an autosampler, degasser, and quaternary solvent pump. Decursin and IS were separated on a Hypersil GOLD C18 column (2.1 mm × 100 mm, 1.9 μm; Thermo Fisher Scientific, MA, USA) at 35℃. The flow rate was set at 300 μL/min with an injection volume of 5 μL. The mobile phase consisted of water (containing 0.1% formic acid, A) and acetonitrile (B) and the gradient elution applied was as follows: 30–60% (B) for 0–4 min, 60% (B) for 0.5 min, and then re-equilibrated to 30% (B) until the end of the analysis. An LCQ Fleet ion-trap mass spectrometer (Thermo Fisher Scientific; MA, USA) was used to detect compounds in the eluent using the electrospray ionization source in the positive-ion mode. MS conditions were as follows: sheath gas (nitrogen), 50 arbitrary units; auxiliary gas (nitrogen), 20 arbitrary units; spray voltage, 5.0 kV; capillary temperature, 300℃; and capillary voltage, 30.0 V. Quantification of the compound was performed in the selective ion monitoring mode at 329 m/z [M+H]^+ for decursin and 415 m/z [M+H]^+ for the IS. Data was processed using Excalibur (v. 2.1.0; Thermo Fisher Scientific, CA, USA). Accurately weighed decursin and IS were dissolved in methanol at a concentration of 100 μg/mL, and the solution was diluted with methanol to prepare working solutions for the construction of the calibration curve. Calibration standards were prepared using 150 μL of blank rat plasma spiked with 10 μL of working solutions and 10 μL of IS solution, which was extracted using ethyl acetate. Plasma samples were prepared using a liquid–liquid extraction method. An aliquot of 150 μL plasma sample was spiked with 10 μL of IS solution and 10 μL of methanol, and 800 μL of ethyl acetate was added. Extraction of decursin and IS was performed by vortex mixing for 2 min at 25℃, followed by centrifugation at 704 × g for 10 min at 20℃. The upper layer (ethyl acetate) was then transferred to a clean 1.5 mL polypropylene tube and evaporated using a nitrogen gas blowing concentrator (MGS–2200; EYELA, Miyagi, Japan). The residue obtained after evaporation was reconstituted in 100 μL of methanol, vortex mixed for 2 min, and centrifuged at 704 × g for 10 min at 20℃. The supernatant was transferred to a glass vial and a 5 μL aliquot was injected into the UPLC–MS/MS system. […] Blood samples ([…]) were collected from a jugular vein in heparinized tubes before the administration, and 0.17, 0.5, 1, 2, 4, 6, 8, 12, 24, or 48 h after intragastric administration. Collected blood samples were immediately centrifuged at 704 × g for 10 min, and 150 μL aliquots of supernatant plasma were transferred to clean tubes and stored at -20 °C until analysis. The pharmacokinetic parameters of decursin were calculated using plasma concentration of decursin versus time data using PKSolver (a free add-in program for Microsoft Excel).

[3] = oral RAGE 100 mg/rat, mean ± SD, n = 6

For `CC1(C)Oc2cc3oc(=O)ccc3cc2C[C@@H]1O` [decursinol], the “activities of ERK and p38” value [1] is given as “inhibited”.

In the case of `CC(C)=CC(=O)O[C@H]1Cc2cc3ccc(=O)oc3cc2OC1(C)C` [decursin], the half-life ([2]; SD, rat, after oral administration of RAGE, as restated in the discussion) is reported as 8.28 h, the AUC(0-t) ([2]; oral RAGE 100 mg/rat, 0 to 48 h, mean ± SD, n = 6) is reported as 1190 ± 324 ng·h/mL and the MRT last ([2]; oral RAGE 100 mg/rat, 0 to 48 h, mean ± SD, n = 6, read-out: MRT0-t) is reported as 5.43 ± 0.581 h. For the same molecule, the concentration at 48 h ([2]; oral RAGE 100 mg/rat, last measured concentration, mean ± SD, n = 6, read-out: Clast) was 2.62 ± 0.665 ng/mL, the AUC(0-inf) [2, 3] was 1220 ± 326 ng·h/mL and the Cmax [2, 3] was 408 ± 85.7 ng/mL. For the same molecule, the Tmax [2, 3] was 1.75 ± 1.25 h, the half-life [2, 3] was 8.28 ± 0.538 h and the MRT inf ([2]; oral RAGE 100 mg/rat, mean ± SD, n = 6, read-out: MRT0-∞) was 6.9 ± 0.954 h. For the same molecule, the “activities of ERK and p38” value [1] was “inhibited”.
